Reference: PMC4884984, “Identification of approved and investigational drugs that inhibit hypoxia-inducible factor-1 signaling” (Oncotarget, 2016)
Where two headings read alike, the source gives them in different places. *1 amine or outer side, *2 acyl side, *3 side chain or, on linkers, in order; H or OH if unused. Where a SMILES comes first, the peptide text is derived from it. Bridges are numbered along the chain shown (N, C = ends). Roman numbers before positions name the chains, in order. [ ]: non-standard residue; d: D form. Actinocin(9to1) = Cc1c2oc3c(C)ccc(C(=O)[*:1])c3nc-2c(C(=O)[*:2])c(N)c1=O; NMeV = CN[C@H](C(=O)O)C(C)C; Sar = CNCC(=O)O

Key:
[1] = test system: hypoxia response element-beta-lactamase (HRE–bla); experiment: HRE-bla reporter gene assay in ME-180 cells; format: cell-based, human; details: Table S7, confirmatory screen; for IC50: read-out: HRE–bla confirmatory IC50; for Emax: read-out: HRE–bla confirmatory Efficacy
Protocol: (§1) Cell culture of HRE–bla ME-180 cells (Cat. No. K1644, Life Technologies) and HRE–bla assay were conducted according to a reported protocol [6]. […] The fluorescence signals (460/25 nm and 530/20 nm) of CCF4 and luminescence signals of CellTiter-Glo were acquired on an Envision and a ViewLux plate readers (Perkin Elmer), respectively.

[2] = test system: HIF-1α–NanoLuc HCT116 cells; experiment: Viability (Luc): CellTiter-Glo counter screen in HIF-1α–NanoLuc cells; format: cell-based, human; details: for Viability (Luc) confirmatory IC50: Table S7, 1% O2, 18 h; for IC50: 1% O2, 18 h
[3] = test system: HIF-1α–NanoLuc; experiment: HIF-1α–NanoLuc reporter gene assay (qHTS primary and confirmatory screens); format: cell-based, human
[4] = test system: HRE–bla ME-180 cells; experiment: Viability (BLA): CellTiter-Glo counter screen in HRE–bla cells; format: cell-based, human; details: for IC50: 1% O2, 18 h; for Viability (BLA) confirmatory IC50: Table S7, 1% O2, 18 h
Protocol: as §1

[5] = test system: ME-180 cells; experiment: Cancer cell proliferation assay, ME-180; format: cell-based; details: Homo sapiens, ME-180, 72 h, Table S8, 3 days
Protocol: (§2) HCT116 and ME-180 cells (ATCC) were cultured according to manufacturer's instructions. […] Cell proliferation was quantified as relative luminescence unit (RLU) values using CellTiter-Glo viability assay reagent on a ViewLux plate reader (Perkin Elmer).

[6] = test system: HCT116 cells; experiment: Cancer cell proliferation assay, HCT116; format: cell-based, human; details: Homo sapiens, HCT-116, 72 h, Table S8, 3 days
Protocol: as §2

[7] = Homo sapiens, Table S7, confirmatory screen, read-out: HIF-1α–NanoLuc confirmatory Efficacy
[8] = Homo sapiens, Table S7, confirmatory screen, read-out: HIF-1α–NanoLuc confirmatory IC50
[9] = Homo sapiens, Table S7, primary screen, read-out: HIF-1α–NanoLuc primary Efficacy
[10] = Homo sapiens, Table S7, primary screen, read-out: HIF-1α–NanoLuc primary IC50
[11] = Homo sapiens, ME-180, Table S7, confirmatory screen
[12] = Homo sapiens, Table S1, primary screen, hypoxia 1% O2, 18 h, read-out: IC50 (primary screen, HIF-1α–NanoLuc assay)
[13] = Homo sapiens, Table S1, primary screen, read-out: Efficacy (primary screen, HIF-1α–NanoLuc assay)
[14] = Homo sapiens, Table S2, primary screen, read-out: Pathway inhibitors (primary screen) HIF-1α–NanoLuc Activity Efficacy
[15] = Homo sapiens, Table S2, validation, read-out: Pathway inhibitors (validation) HIF-1α–NanoLuc Activity Efficacy
[16] = Homo sapiens, Table S2, validation, read-out: Pathway inhibitors (validation) HIF-1α–NanoLuc Activity IC50
[17] = Homo sapiens, HCT-116, Table S7, confirmatory screen
[18] = Homo sapiens, 18 h, read-out: IC50 (primary screen, HIF-1α–NanoLuc assay)
[19] = Homo sapiens, read-out: Efficacy (primary screen, HIF-1α–NanoLuc assay)
[20] = Homo sapiens, read-out: HIF-1α–NanoLuc confirmatory Efficacy
[21] = Homo sapiens, read-out: HIF-1α–NanoLuc confirmatory IC50
[22] = Homo sapiens, read-out: HIF-1α–NanoLuc primary Efficacy
[23] = Homo sapiens, Table S2, primary screen, read-out: Pathway inhibitors (primary screen) HIF-1α–NanoLuc Activity IC50

Compound | Viability (Luc) confirmatory IC50 [2] | Emax ([1]; Homo sapiens, ME-180) [%] | IC50 ([1]; Homo sapiens, ME-180) [µM] | Emax [3, 7] [%] | IC50 [3, 8] [µM] | Emax [3, 9] [%] | IC50 [3, 10] [µM] | IC50 [4, 11] [µM] | Emax [3, 15] [%] | IC50 [3, 16] [µM] | Viability (BLA) confirmatory IC50 [4] | also measured
CCCCCCCCCCCCCC[N+](C)(C)C.[Br-] [MitMAB] | Inactive |  |  |  |  |  |  |  |  |  |  | HRE–bla confirmatory Efficacy [1]: 100 ± 5%; IC50 [1]: 5.73 ± 1.88 µM; HIF-1α–NanoLuc confirmatory Efficacy ([3]; Table S7, confirmatory screen): 99 ± 9%; IC50 ([3]; Table S7, confirmatory screen, read-out: HIF-1α–NanoLuc confirmatory IC50): 15.2 ± 7.16 µM; HIF-1α–NanoLuc primary Efficacy ([3]; Table S7, primary screen): 129%; IC50 ([3]; Table S7, primary screen, read-out: HIF-1α–NanoLuc primary IC50): 2.11 µM; IC50 ([4]; Table S7, confirmatory screen): 18.2 ± 2.51 µM
CC(=O)Oc1ccc(C(c2ccc(OC(C)=O)cc2)c2ccccn2)cc1 [Bisacodyl] | Inactive | 93 ± 4 | 0.84 ± 0.1 | 26 ± 6 | 3.91 ± 0.7 | 110 | 0.84 | 0.69 ± 0.05 |  |  |  | 
C[C@@H]1O[C@@H](O[C@H]2C[C@@H](O)[C@]3(CO)[C@H]4[C@H](O)C[C@]5(C)[C@@H](C6=CC(=O)OC6)CC[C@]5(O)[C@@H]4CC[C@]3(O)C2)[C@H](O)[C@H](O)[C@H]1O [Ouabain] |  | 94 ± 4 | 0.08 ± 0.01 |  |  |  |  | 0.13 |  |  |  | Emax ([5]; read-out: ME-180 3-Day Viability Efficacy): 98 ± 4%; IC50 ([5]; read-out: ME-180 3-Day Viability IC50): 0.13 ± 0.01 µM; Emax ([6]; read-out: HCT116 3-Day Viability Efficacy): 73 ± 13%; IC50 ([6]; read-out: HCT116 3-Day Viability IC50): 0.63 ± 0.37 µM
N#C/C(=C\c1ccc(-c2cc(Cl)ccc2Cl)o1)C(=O)Nc1cccc2ncccc12 [AGK2] |  |  |  |  |  |  |  |  |  |  |  | HRE–bla confirmatory Efficacy [1]: 63 ± 14%; IC50 [1]: 9.47 ± 3.45 µM; IC50 ([2]; Table S7, confirmatory screen): 21.2 ± 3.96 µM; Pathway inhibitors (validation) HIF-1α–NanoLuc Activity Efficacy ([3]; Table S2, validation): 107± 9%; IC50 ([3]; Table S2, validation, read-out: Pathway inhibitors (validation) HIF-1α–NanoLuc Activity IC50): 19.5 ± 2.49 µM; HIF-1α–NanoLuc confirmatory Efficacy ([3]; Table S7, confirmatory screen): 107 ± 9%; IC50 ([4]; Table S7, confirmatory screen): 10.1 ± 2.97 µM
C#Cc1cccc(Nc2ncnc3cc(OCCOC)c(OCCOC)cc23)c1 [Erlotinib] | Inactive | 59 ± 15 | 7.95 ± 3.47 | 35 ± 6 |  | 33 |  |  | 35 ± 6 | 6.64 ± 2.42 | Inactive | IC50 [3, 12]: 2.66 µM; Emax [3, 13]: 33%; Emax [3, 14]: 33%
Nc1nc2nc[nH]c2c(=S)[nH]1 [6-Thioguanine] |  | 88 ± 1 | 7.83 ± 1 | 81 ± 7 | 3.26 ± 0.81 | 81 | 2.11 |  |  |  | Inactive | IC50 [2, 17]: 2.3 ± 0.87 µM; Emax ([2]; Homo sapiens, HCT-116, Table S7, confirmatory screen, read-out: Viability (Luc) confirmatory Efficacy): 57 ± 2%
C[C@@H]1C[C@@H]([C@H](O)CC2CC(=O)NC(=O)C2)C(=O)[C@@H](C)C1 [Cycloheximide] | Inactive | 92 ± 2 | 1.06 ± 0.12 |  |  |  |  | 8.34 ± 4.61 |  |  |  | Effect on HIF-1α–NanoLuc level / luciferase activity, in words [3]: showed reduced protein turnover and decreased luciferase signal; IC50 [3, 18]: 0.24 µM; Emax [3, 19]: 92%; Emax [3, 20]: 104 ± 5%; IC50 [3, 21]: 0.53 µM; Emax [3, 22]: 92%
CO[C@H]1C[C@@H]2CC[C@@H](C)[C@@](O)(O2)C(=O)C(=O)N2CCCC[C@H]2C(=O)O[C@H]([C@H](C)C[C@@H]2CC[C@@H](OC(=O)C(C)(CO)CO)[C@H](OC)C2)CC(=O)[C@H](C)/C=C(\C)[C@@H](O)[C@@H](OC)C(=O)[C@H](C)C[C@H](C)/C=C/C=C/C=C/1C [Temsirolimus] | Inactive | 86 ± 7 | 15.9 ± 6.91 | 92 ± 8 | 34.5 ± 2.34 |  |  | 27.7 ± 1.87 |  |  |  | Emax ([4]; Homo sapiens, ME-180, Table S7, confirmatory screen, read-out: Viability (BLA) confirmatory Efficacy): 116 ± 11%
CC(C)(C)c1nc(-c2cccc(NS(=O)(=O)c3c(F)cccc3F)c2F)c(-c2ccnc(N)n2)s1 [Dabrafenib] | Inactive | 43 ± 1 | 6.4 ± 1.55 | 26 ± 13 |  |  |  |  | 26 ± 13 | 0.47 ± 0.24 | Inactive | 
c1ccc(CCNc2nc(-c3ccccc3)cs2)cc1 [Fanetizole] | Inactive |  |  | 28 ± 5 | 16.4 ± 3.97 | 123 | 26.6 |  |  |  | Inactive | HRE–bla confirmatory IC50 [1]: Inactive
CS(=O)(=O)CCNCc1ccc(-c2ccc3ncnc(Nc4ccc(OCc5cccc(F)c5)c(Cl)c4)c3c2)o1 [Lapatinib] | Inactive | 78 ± 6 | 11.4 ± 0.75 | 50 ± 6 |  | 56 | 33.5 | 20.4 ± 1.33 | 50 ± 6 | 20.2 ± 1.31 |  | 
CC(=O)Oc1ccc(C2(c3ccc(OC(C)=O)cc3)C(=O)Nc3ccccc32)cc1 [Oxyphenisatin acetate] | Inactive | 92 ± 3 | 0.19 ± 0.01 | 55 ± 9 | 2.47 ± 0.79 | 84 | 1.33 | 0.2 ± 0.01 |  |  |  | 
Cc1nc(Nc2ncc(C(=O)Nc3c(C)cccc3Cl)s2)cc(N2CCN(CCO)CC2)n1 [Dasatinib] | Inactive | 52 ± 11 | 0.03 ± 0.02 | 46 ± 3 |  | 56 | 21.1 |  | 46 ± 3 | 23.6 ± 8.59 | Inactive | Emax [3, 14]: 82%; IC50 [3, 23]: 0.94 µM
CCOC(=O)C1(c2ccccc2)CCN(CCC(C#N)(c2ccccc2)c2ccccc2)CC1 [Diphenoxylate] | Inactive | 60 ± 4 | 7.8 ± 0.53 |  |  |  |  |  |  |  | Inactive | Emax [3, 20]: 104 ± 12%; IC50 [3, 21]: 13.7 ± 0.93 µM; Emax [3, 22]: 82%; IC50 ([3]; Homo sapiens, read-out: HIF-1α–NanoLuc primary IC50): 16.8 µM
C=CC(=O)Nc1cc2c(Nc3ccc(F)c(Cl)c3)ncnc2cc1OCCCN1CCOCC1 [Canertinib] | Inactive | 37 ± 22 | 4.67 ± 7.5 | 88 ± 20 | 28.8 ± 10.7 | 50 |  | 21.2 ± 2.44 | 88 ± 20 | 24.8 ± 10.7 |  | Emax [3, 14]: 50%; IC50 [3, 23]: 2.37 µM
CNC(=O)c1cc(Oc2ccc(NC(=O)Nc3ccc(Cl)c(C(F)(F)F)c3)cc2)ccn1 [Sorafenib] | Inactive | 98 ± 7 | 17.6 ± 8.6 | 100 ± 6 |  | 156 |  |  | 100 ± 6 | 23.6 ± 2.71 | Inactive | IC50 [3, 12]: 13.3 µM; Emax [3, 13]: 156%; Emax [3, 14]: 46%; IC50 [3, 23]: 1.5 µM
Cc1c2oc3c(C)ccc(C(=O)N[C@@H]4C(=O)N[C@H](C(C)C)C(=O)N5CCC[C@H]5C(=O)N(C)CC(=O)N(C)[C@@H](C(C)C)C(=O)O[C@@H]4C)c3nc-2c(C(=O)N[C@@H]2C(=O)N[C@H](C(C)C)C(=O)N3CCC[C@H]3C(=O)N(C)CC(=O)N(C)[C@@H](C(C)C)C(=O)O[C@@H]2C)c(N)c1=O [Actinomycin D] (I: T[dV]P[Sar][NMeV] / II: T[dV]P[Sar][NMeV]; ester I:1-I:C, II:1-II:C; linker I:N-II:N via Actinocin(9to1)) | Inactive | 78 ± 5 | 0.02 |  |  |  |  | 1.52 ± 2.33 |  |  |  | Effect on HIF-1α–NanoLuc level / luciferase activity, in words [3]: caused reduced NanoLuc activity; IC50 [3, 18]: 0.04 µM; Emax [3, 19]: 99%; Emax [3, 20]: 87 ± 4%; IC50 [3, 21]: 0.03 ± 0.01 µM; Emax [3, 22]: 99%
CCCCC(CC)CNC(=N)NC(=N)NCCCCCCNC(=N)NC(=N)NCC(CC)CCCC (stereo not drawn) [Alexidine] |  | 87 ± 18 | 8.78 ± 1.12 | 107 ± 2 | 9.35 | 126 | 10.6 | 8.83 ± 1.59 |  |  |  | IC50 [2, 17]: 18.9 ± 3.53 µM
CCOc1ccc(Cc2nccc3cc(OCC)c(OCC)cc23)cc1OCC [Ethaverine] | Inactive |  |  | 96 ± 2 | 9.39 ± 1.08 | 67 | 6.68 |  |  |  | Inactive | HRE–bla confirmatory IC50 [1]: Inactive
COc1cc2ncnc(Nc3ccc(F)c(Cl)c3)c2cc1OCCCN1CCOCC1 [Gefitinib] | Inactive | 45 ± 14 |  | 31 ± 3 |  | 86 |  |  |  |  | Inactive | Emax [3, 13]: 86%
